Results taken from patent US6399759B1, “Ant proteases and methods of inhibition” (University of Georgia Research Foundation, Inc., priority 1999, dated 2002).
Where “and” joins values, the source holds several entries; their conditions need not be identical. Equal values may be shown once. Where a SMILES comes first, the peptide text is derived from it. [ ]: non-standard residue; d: D form. The star is where a group is joined. Sta = CC(C)C[C@H](N)[C@@H](O)CC(=O)O; Isovaleryl = CC(C)CC(=O)*

Key:
[1] = tested on: Soli E1; experiment: Inhibition of amidolytic activity by synthetic inhibitors; format: biochemical, Solenopsis invicta
[2] = tested on: Soli C2; experiment: as above; format: biochemical, Solenopsis invicta
[3] = target: T1, Soli C1 (Solenopsis invicta, UniProt Q7SIG2); format: biochemical
T1 construct: Fourth instar larvae were extracted in a 1:10 (weight/volume) ratio of 20 mM Tris-HCl pH 7.4; from tissue; host or cells: whole Solenopsis invicta 4th instar larvae (buffer extract, acetone precipitation, Q Sepharose peak III, Mono Q, Superdex 75)
T1 sequence (Q7SIG2 whole entry): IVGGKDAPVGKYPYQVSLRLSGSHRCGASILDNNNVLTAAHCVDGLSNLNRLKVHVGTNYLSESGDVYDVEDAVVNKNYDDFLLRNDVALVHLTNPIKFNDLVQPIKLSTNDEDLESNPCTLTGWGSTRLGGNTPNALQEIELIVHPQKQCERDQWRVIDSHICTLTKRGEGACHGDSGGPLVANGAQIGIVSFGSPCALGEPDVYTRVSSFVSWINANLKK

[4] = tested on: Soli E2; experiment: Inhibition of amidolytic activity by synthetic inhibitors; format: biochemical, Solenopsis invicta
[5] = target: T1, Soli C1; experiment: Inhibition of amidolytic activity by naturally occurring protease inhibitors; format: biochemical; conditions: 10 minutes incubation at 25° C. in 50 mM Tris-HCl, 100 mM NaCl, pH 7.4
Description: (§1) Enzyme Assay—Generally, the amidolytic activities of each proteinase were measured with the substrates MeOSuc-Ala-Ala-Pro-Val-pNA (SEQ ID NO:8) and N-Suc-Ala-Ala-Pro-Phe-pNA (SEQ ID NO:7) in 0.05 M Tris-HCl and 100 mM NaCl pH 7.4 (assay buffer). Release of the pNA group was assayed by monitoring the optical density of the test solution at […]. Enzyme inhibition assays by protein inhibitors were conducted in the same assay buffer using an inhibitor concentration ranging from 0.02-50 nM with a 10 minute preincubation time and with the final enzyme concentration being 1.0 nM. All kinetic studies with substrates and inhibitors were performed at the optimum pH of the individual proteinases, utilizing the following buffers: 150 mM NaCl, 50 mM Tris-HCl pH 8.0 (E1); 150 mM NaCl, 50 mM CHES pH 9.5 (E2 and C2); and 150 mM NaCl, 50 mM CAPS pH 10.0 (C1).

[6] = tested on: Soli C2; experiment: as above; format: biochemical, Solenopsis invicta; conditions: 10 minutes incubation at 25° C. in 50 mM Tris-HCl, 100 mM NaCl, pH 7.4
Description: as §1

[7] = tested on: Soli E1; experiment: as above; format: biochemical, Solenopsis invicta; conditions: 10 minutes incubation at 25° C. in 50 mM Tris-HCl, 100 mM NaCl, pH 7.4
Description: as §1

[8] = tested on: Soli E2; experiment: as above; format: biochemical, Solenopsis invicta; conditions: 10 minutes incubation at 25° C. in 50 mM Tris-HCl, 100 mM NaCl, pH 7.4
Description: as §1

[9] = format: physicochemical, Solenopsis invicta
Description: (§2) pH analysis—The determination of pH optimum and stability for each enzyme was performed using a Universal Phosphate Buffer system, which is a buffer made from boric acid and phosphoric acid titrated with sodium hydroxide such that the ionic strength is the same at any pH. Briefly, equal volumes of a solution of 80 mM boric acid and a solution of 80 mM phosphoric acid were combined, and 200 mM sodium hydroxide was added to bring the mixture to the desired pH.

[10] = Isoelectrofocusing (IEF) of the purified proteinases; format: physicochemical, Solenopsis invicta; conditions: IEF gels pH 3-10, Serva Test Mix 9 standards
Description: IEF—Isoelectrofocusing of the purified proteinases was performed on precast isoelectric focusing gels (pH 3-10) obtained under the trade designation […] PRECOTES (Cresent Chemical Co., Inc., Hauppauge, N.Y.). Sample preparations and isoelectrofocusing were carried out following instructions provided by Pharmacia and using the Pharmacia Flatbed Electrophoresis Unit.
IEF—Based on Serva Test Mix 9 IEF standards (Cresent Chemical Co., Inc.), the proteinases migrated to the following pI's; Soli E1, 10.0; Soli E2 (3 isoforms), 6.9, 8.3, 8.5; Soli C1, 4.7; and Soli C2, 4.2.

[11] = pH optimum of the purified proteinases; format: biochemical, Solenopsis invicta; conditions: Vmax of substrate hydrolysis, room temperature, pH range 3.0 to 12.0
Description: as §2

Molecule: CC(C)C[C@H](NC(=O)[C@H]1O[C@@H]1C(=O)O)C(=O)NCCCCN=C(N)N (relative stereo) [E-64, trans-epoxysuccinyl-L-leucylamido-(4-guanidino)butane]
- Inhibition of Soli E1 by class-specific proteinase inhibitors (in words) [1]: not
- Inhibition of Soli C2 by class-specific proteinase inhibitors (in words) [2]: not
- Inhibition of Soli C1 by class-specific proteinase inhibitors (in words) [3]: not

Molecule: O=c1oc(Cl)c(Cl)c2ccccc12 [DCIC, 3,4-dichloroisocoumarin]
- Inhibition of Soli E2 by class-specific proteinase inhibitors (in words) [4]: inhibited
- Inhibition of Soli E1 by class-specific proteinase inhibitors (in words) [1]: inhibited
- Inhibition of Soli C2 by class-specific proteinase inhibitors (in words) [2]: not Soli C1 or Soli C2, except after long incubation periods
- Inhibition of Soli C1 by class-specific proteinase inhibitors (in words) [3]: not Soli C1 or Soli C2, except after long incubation periods

Molecule: O=C(O)CN(CCN(CC(=O)O)CC(=O)O)CC(=O)O [EDTA, ethylenediaminetetraacetate·2H2O]
- Inhibition of Soli E1 by class-specific proteinase inhibitors (in words) [1]: not
- Inhibition of Soli C2 by class-specific proteinase inhibitors (in words) [2]: not
- Inhibition of Soli C1 by class-specific proteinase inhibitors (in words) [3]: not

Molecule: CC(C)CC(=O)N[C@H](C(=O)N[C@H](C(=O)N[C@@H](CC(C)C)[C@@H](O)CC(=O)N[C@@H](C)C(=O)N[C@@H](CC(C)C)[C@@H](O)CC(=O)O)C(C)C)C(C)C [Pepstatin] (Isovaleryl-VV[Sta]A[Sta]-OH)
- Inhibition of Soli E1 by class-specific proteinase inhibitors (in words) [1]: not
- Inhibition of Soli C2 by class-specific proteinase inhibitors (in words) [2]: not
- Inhibition of Soli C1 by class-specific proteinase inhibitors (in words) [3]: not

Molecule: Canadian Goose OM Domain III: Domain III of Canadian goose ovomucoid
- IC50 [5]: > 50 nM
- IC50 [6]: > 50 nM
- IC50 [7]: 1.51 nM
- IC50 [8]: 27.3 nM

Molecule: Domestic Goose OM Domain III: Domain III of domestic goose ovomucoid
- IC50 [5]: > 50 nM
- IC50 [6]: > 50 nM
- IC50 [7]: > 50 nM
- IC50 [8]: 5.58 nM

Molecule: Soli C1: chymotrypsin-like serine proteinase, about 25 kDa, from S. invicta 4th instar larvae (IVGGDAPVGKYPYQVSLRLSG)
- Stability of enzyme activity [9]: stable for several days
- pI [10]: 4.7
- pH optimum [11]: 9.0-10.5

Molecule: Soli C2: chymotrypsin-like serine proteinase, about 28 kDa, from S. invicta 4th instar larvae (IVGGEPAPGGAYPFIVSLQV)
- Stability of enzyme activity [9]: lost their activities fairly quickly over all pHs
- pH at which most stable [9]: 8.0
- pI [10]: 4.2
- pH optimum [11]: 9.0

Molecule: Soli E1: elastase-like serine proteinase, about 23 kDa, from S. invicta 4th instar larvae (IVGGQPATPGEFPHQGSLRV)
- Stability of enzyme activity [9]: lost their activities fairly quickly over all pHs
- pH at which most stable [9]: 7.0
- pI [10]: 10.0
- pH optimum [11]: 8.0

Molecule: Soli E2: elastase-like serine proteinase, about 24 kDa, from S. invicta 4th instar larvae (IVGGQDAAPGEFPHQGSLRLRGSHI)
- Stability of enzyme activity [9]: lost their activities fairly quickly over all pHs
- pH at which most stable [9]: 8.5
- pI [10]: 6.9 and 8.3 and 8.5
- pH optimum [11]: 8.5-10

Molecule: α1-PI: α-1-Proteinase Inhibitor
- IC50 [5]: 0.338 nM
- IC50 [6]: 0.271 nM
- IC50 [7]: 1.2 nM
- IC50 [8]: 0.604 nM
